Values quoted from earlier work as cited in article PMC11974678 (bioRxiv, 2025).

Target: T1, FABP1 (Homo sapiens, UniProt P07148)
T1 sequence (P07148 with tags, fused parts or gaps): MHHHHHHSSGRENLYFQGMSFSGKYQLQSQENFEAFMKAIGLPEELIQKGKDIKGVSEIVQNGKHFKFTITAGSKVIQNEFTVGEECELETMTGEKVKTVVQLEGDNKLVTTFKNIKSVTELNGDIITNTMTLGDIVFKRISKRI
Conditions: read-out: KD of binding to FABP1

For `O=C(O)C(F)(F)C(F)(F)C(F)(F)C(F)(F)C(F)(F)C(F)(F)C(F)(F)F` [335-67-1, perfluorooctanoic acid], the Kd is given as 18.8 µM.
